Measurements from US9951089B2, “Methods of treating a fatty acid amide hydrolase-mediated condition” (INFINITY PHARMACEUTICALS, INC., priority 2010, dated 2018).

Biological target: T1, human FAAH (Homo sapiens, UniProt O00519)
T1 construct: The clone was in an ORIGENE® pCMV6-XL5 with an insert size of ˜2.2 kb
T1 sequence (O00519 50-579 limits assumed): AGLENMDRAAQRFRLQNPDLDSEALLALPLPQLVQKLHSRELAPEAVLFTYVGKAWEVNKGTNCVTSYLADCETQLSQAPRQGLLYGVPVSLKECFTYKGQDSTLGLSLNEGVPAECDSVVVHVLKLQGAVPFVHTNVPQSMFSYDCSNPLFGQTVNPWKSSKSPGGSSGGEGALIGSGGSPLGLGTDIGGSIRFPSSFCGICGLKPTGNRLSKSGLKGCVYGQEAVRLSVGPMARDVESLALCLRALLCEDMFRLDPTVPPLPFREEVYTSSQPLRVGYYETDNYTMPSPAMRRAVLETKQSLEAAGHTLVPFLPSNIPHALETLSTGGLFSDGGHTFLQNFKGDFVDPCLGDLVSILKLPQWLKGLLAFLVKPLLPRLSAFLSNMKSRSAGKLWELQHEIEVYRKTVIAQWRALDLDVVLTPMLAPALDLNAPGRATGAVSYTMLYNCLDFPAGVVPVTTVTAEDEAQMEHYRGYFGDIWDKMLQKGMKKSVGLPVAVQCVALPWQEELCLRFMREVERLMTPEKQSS
Test: Ki determination, human FAAH (AMC-arachidonoyl amide hydrolysis, fluorescence end point)
Assay type: biochemical
Conditions: hFAAH 108 μg/mL, substrate 20 μM, 30 min preincubation, 4 hours at room temperature
Excerpt: A human FAAH (hFAAH) cDNA clone was purchased from Origen (Catalog #TC 119221, Accession #NM_001441.1). The clone was in an ORIGENE® pCMV6-XL5 with an insert size of ˜2.2 kb. Sequencing of the clone indicated a conservative mutation of K48R. This point mutation is possibly an allelic difference, and is far from the active site and unlikely to effect the activity. This plasmid was amplified in E. coli and isolated by precipitation. […]
Frozen cell pellets were thawed on ice and resuspended in: 12.5 mM HEPES (pH 8.0), 100 mM NaCl, and 1 mM EDTA at a ratio of 25 mL per gram of cells. […] Total protein concentrations were determined using a Bio-Rad Protein Assay (Protein Assay Dye Reagent Concentrate, cat#500-0006) ref. 5. […]
The Ki of a test compound was determined for rat and human FAAH by measuring the dose dependent inhibition of AMC-Arachidonoyl amide hydrolysis as an end point read. Assays were carried out in Corning COSTAR® 384 well flat black bottom microtiter plates (Catalog #3654) and monitored in an Envision 2100 multilabel plate reader (Perkin Elmer-Wallac), with a 355 nm (40 nm band pass) excitation filter and 460 nm (25 nm bandpass) emission filter. […]

Ki: 14.1 nM
SMILES: OB(O)c1ccc(-c2ccc(B(O)O)c(F)c2)cc1F [IMP-4]
